From publication PMC9228535, “Antistaphylococcal Activities and ADME-Related Properties of Chlorinated Arylcarbamoylnaphthalenylcarbamates” (Pharmaceuticals, 2022)
Converted amounts (≈) assume the structure as drawn. Where two headings read alike, the source gives them in different places.

Tests used:
MRSA 63718 [1] = tested on: MRSA 63718; set-up: method as in PMID 25692135; details: cited from earlier work
[2] = Lipophilicity determination by RP-HPLC (log k, log D); type: physicochemical; details: RP-HPLC; for log D6.5: MeOH 72%/acetate buffered saline pH 6.5; for log D7.4: MeOH 72%/acetate buffered saline pH 7.4; for log k: MeOH 72%/water 28%
Protocol: Lipophilicity was measured by reversed-phase high performance liquid chromatography (RP-HPLC) under isocratic conditions with methanol as the organic modifier in the aqueous mobile phase and the logarithm of the capacity factor k was calculated, which is used as the lipophilicity index converted to the log P scale. In addition to the log k values, the logarithm of the distribution coefficient DpH at pH 6.5 and 7.4 was determined to clarify the behavior of the compounds under physiological conditions and possible ionization. Instead of water, a buffer of suitable pH was used as part of the mobile phase. In addition to the above-mentioned experimental methods, commercially available ChemBioDraw Ultra 13.0 and ACD/Percepta ver. […] In addition to lipophilicity, other parameters discussed in Ro5, such as molecular weight, number of H-bond donors/acceptors, as well as parameters not reported in Ro5, but characterizing the physicochemical properties of the prepared molecules, such as number of rotatable bonds, were predicted using ACD/Percepta. Moreover, for each R substituent, bulkiness expressed as molar volume (MV [cm^3]), a parameter describing the tail length/branching of each carbamates, was calculated.
A HPLC separation module Agilent 1200 Series (Agilent Technologies, Santa Clara, CA, USA) equipped with a Dual Absorbance Detector (DAD SL G1315C, Agilent Technologies) was used. A chromatographic column Symmetry® C18 5 μm, 4.6 × 250 mm, Part No. W21751W016 (Waters Corp, Milford, MA, USA) was used. The HPLC separation process was monitored by ChemStation for LC 3D systems (Agilent Technologies). […] The total flow of the column was 1.0 mL/min, injection 20 μL, column temperature 40 °C, and sample temperature 10 °C. The detection wavelength of 210 nm was chosen. A KI methanolic solution was used for the determination of the dead times (tD). Retention times (tR) were measured in minutes. The capacity factors k were calculated according to the formula k = (tR − tD)/tD, where tR is the retention time of the solute, and tD is the dead time obtained using an unretained analyte. The distribution coefficients DpH were calculated according to the formula DpH = (tR − tD)/tD. Each experiment was repeated three times.

MRSA 63718 [3] = assay: MIC, microtitration broth method; type: cell-based; details: Staphylococcus aureus
Protocol: (§1) All the investigated compounds were screened for in vitro antibacterial activity against the reference and quality control strain Staphylococcus aureus ATCC 29213 and clinical isolates of methicillin-resistant S. aureus (MRSA) 63718, SA 630, and SA 3202 [14]. Activities are expressed as the minimum inhibitory concentrations (MICs), see Table 2. In addition to the MICs, the minimum bactericidal concentrations (MBCs) were also determined.
(§2) In vitro antibacterial activity of the synthesized compounds was evaluated against representatives of multidrug-resistant bacteria, three clinical isolates of methicillin-resistant S. aureus: clinical isolate of animal origin, MRSA 63718 (Department of Infectious Diseases and Microbiology, Faculty of Veterinary Medicine, University of Veterinary Sciences Brno, Czech Republic), carrying the mecA gene; and MRSA SA 630 [46] and MRSA SA 3202 [46] (National Institute of Public Health, Prague, Czech Republic), both of human origin. Suspected colonies were confirmed by PCR; a 108bp fragment specific for S. aureus was detected. All isolates were tested for the presence of the mecA gene encoding methicillin resistance. […] Vancomycin-susceptible methicillin-susceptible S. aureus (VS-MSSA) ATCC 29213, obtained from the American Type Culture Collection, was used as the reference and quality control strain. Enterococcus faecalis ATCC 29212 was obtained from the American Type Culture Collection and used as the reference and quality control strain.
(§3) The minimum inhibitory concentrations (MICs) were evaluated by the microtitration broth method according to the CLSI [64, 65] with some modifications. The compounds were dissolved in DMSO (Sigma, St. Louis, MO, USA) to get a concentration […] and diluted in a microtitration plate in an appropriate medium, namely, Cation Adjusted Mueller–Hinton (CaMH, Oxoid, Basingstoke, UK) for staphylococci (S. aureus ATCC 29213, clinical isolates of MRSA 63718, SA 630, and SA 3202) and brain heart infusion (BHI, Oxoid) for E. faecalis ATCC 29212, to reach the final concentration of 256-0.125 µg/mL. The plate was inoculated by the tested microorganisms. The final concentration of bacterial cells was 10^5 for bacteria. Ampicillin (Sigma) was used as reference drugs. A drug-free control and a sterility control were included. The plates were incubated for 24 h at 37 °C for staphylococci and E. faecalis ATCC 29212 (stability evaluation of the carbamates, see Supplementary materials, Table S1). […] The experiments were repeated three times.

MRSA SA 3202 [4] = assay: MIC, microtitration broth method; type: cell-based; details: Staphylococcus aureus
Protocol: as §1, §2, §3

MRSA SA 630 [5] = assay: MIC, microtitration broth method; type: cell-based; details: Staphylococcus aureus
Protocol: as §1, §2, §3

[6] = tested on: Staphylococcus aureus ATCC 29213; assay: MIC, microtitration broth method; type: cell-based; details: ATCC29213, SA = S. aureus ATCC 29213, 24 h, read-out: MIC
Protocol: as §1, §2, §3

[7] = tested on: Enterococcus faecalis ATCC 29212; assay: MIC, microtitration broth method; type: cell-based; details: ATCC29212; EF = Enterococcus faecalis, 24 h; read-out: MIC
Protocol: as §2, §3

THP-1 cells = assay: In vitro cytotoxicity assay (WST-1); type: cell-based; details: Homo sapiens; THP-1, 24 h, ± SD, n = 6; read-out: IC50
Protocol: Preliminary in vitro cytotoxicity screening of the investigated compounds was performed using human monocytic leukemia THP-1 cells, see Table 2. The ability to inhibit the human cancer cell viability (IC50) of the compounds was compared to camptothecin toxicity (0.16 ± 0.07 μM). […] However, these values are up to two orders of magnitude higher than their significant antistaphyloccocal concentrations. This fact is also taken into account in the calculated selectivity index (SI), Table 2, where for only three compounds the SI is <20, while for the rest of the agents SI is >20, and for some derivatives even 100 and more. Thus, based on all these observations, it can be concluded that all the tested derivatives can be considered as in vitro non-toxic compounds for the subsequent design of new therapeutic agents.
The human THP-1 cell line (European Collection of Cell Cultures, Salisbury, UK) was cultured in RPMI 1640 medium supplemented with 10% fetal bovine serum, 2% L-glutamine, 1% penicillin, and streptomycin at 37 °C with 5% CO2. Cells were passaged at approximately 1-week intervals. All the tested compounds were prepared and dissolved as mentioned in our previous work.

[8] = tested on: S. aureus and MRSA isolates; assay: Antistaphylococcal MIC, summary over strains; type: cell-based, Staphylococcus aureus; details: S. aureus and MRSA isolates
Protocol: as §1, with “determined. […] MBC values that meet this requirement, i.e., the compound is bactericidal, are indicated in bold in Table 2.” for “determined.”
as §2
The minimum inhibitory concentrations (MICs) were evaluated by the microtitration broth method according to the CLSI [64, 65] with some modifications. […]

MRSA 63718 [9] = assay: MBC, agar aliquot subculture method; type: cell-based; details: Staphylococcus aureus, MRSA
Protocol: as §1
(§4) For the S. aureus and MRSA isolates, the agar aliquot subculture method was used as a test for bactericidal agents. After the MIC value determination, the inoculum was transferred to Mueller–Hinton (Oxoid) agar using a multipoint inoculator. The plates were incubated in a thermostat at 37 °C for 24 h. The lowest concentration of test compound at which ≤5 colonies were obtained was then evaluated as MBC, corresponding to a 99.9% decrease in CFU relative to the original inoculum.

MRSA SA 3202 [10] = assay: MBC, agar aliquot subculture method; type: cell-based; details: Staphylococcus aureus
Protocol: as §1, §4

MRSA SA 630 [11] = assay: MBC, agar aliquot subculture method; type: cell-based; details: Staphylococcus aureus
Protocol: as §1, §4

[12] = tested on: Staphylococcus aureus ATCC 29213; assay: MBC, agar aliquot subculture method; type: cell-based; details: ATCC29213, SA = S. aureus ATCC 29213, read-out: MBC
Protocol: as §1, §4

| SMILES | MIC (MRSA 63718 [1]) | log D6.5 [2] | log D7.4 [2] | log k [2] | MIC (MRSA 63718 [3]; MRSA1 = MRSA 63718, 24 h, read-out: MIC) | MIC (MRSA SA 3202 [4]; MRSA3 = SA 3202, 24 h, read-out: MIC) | MIC (MRSA SA 630 [5]; MRSA2 = SA 630, 24 h, read-out: MIC) | MIC [6] | MIC [7] | IC50 (THP-1 cells) | antistaphylococcal/antibacterial activity (in words) [8] | MIC (MRSA 63718 [3]; MRSA, 24 h) | MIC (MRSA SA 3202 [4]; 24 h) | MIC (MRSA SA 630 [5]; 24 h) | MBC (MRSA 63718 [9]) | MBC (MRSA SA 3202 [10]) | MBC (MRSA SA 630 [11]) | MBC [12] |
| --- | --- | --- | --- | --- | --- | --- | --- | --- | --- | --- | --- | --- | --- | --- | --- | --- | --- | --- |
| CN[C@H](CC(C)C)C(=O)N[C@H]1C(=O)N[C@@H](CC(N)=O)C(=O)N[C@H]2C(=O)N[C@H]3C(=O)N[C@H](C(=O)N[C@H](C(=O)O)c4cc(O)cc(O)c4-c4cc3ccc4O)[C@H](O)c3ccc(c(Cl)c3)Oc3cc2cc(c3O[C@@H]2O[C@H](CO)[C@@H](O)[C@H](O)[C@H]2O[C@H]2C[C@](C)(N)[C@H](O)[C@H](C)O2)Oc2ccc(cc2Cl)[C@H]1O [vancomycin] | 2 µg/mL (≈ 1.38 µM) |  |  |  |  |  |  |  |  |  |  |  |  |  |  |  |  |  |
| O=C(Nc1cc(Cl)c(Cl)cc1Cl)c1ccc2ccccc2c1O [Compound 1, 1-hydroxy-N-(2,4,5-trichlorophenyl)-2-naphthamide] |  | 0.5782 | 0.5384 | 0.6600 | 698 µM (≈ 256 µg/mL) | 698 µM (≈ 256 µg/mL) | 698 µM (≈ 256 µg/mL) | 698 µM (≈ 256 µg/mL) | 477 µM (≈ 175 µg/mL) | > 30 µM | no antibacterial activity |  |  |  |  |  |  |  |
| CC(C)NC(=O)Oc1c(C(=O)Nc2cc(Cl)c(Cl)cc2Cl)ccc2ccccc12 [Compound 9, 2-[N-(2,4,5-Trichlorophenyl)carbamoyl]naphthalen-1-yl isopropyl carbamate] |  | 0.9579 | 1.0468 | 0.9526 |  |  |  | 0.018 µM (≈ 0.00813 µg/mL) | 142 µM (≈ 64.1 µg/mL) | 3.26 ± 0.08 µM |  | 0.139 µM (≈ 0.0628 µg/mL) | 0.277 µM (≈ 0.125 µg/mL) | 0.035 µM (≈ 0.0158 µg/mL) | 0.139 µM (≈ 0.0628 µg/mL) | 0.277 µM (≈ 0.125 µg/mL) | 0.277 µM (≈ 0.125 µg/mL) | 0.018 µM (≈ 0.00813 µg/mL) |
| CCCCCCNC(=O)Oc1c(C(=O)Nc2cc(Cl)c(Cl)cc2Cl)ccc2ccccc12 [Compound 6, 2-[N-(2,4,5-Trichlorophenyl)carbamoyl]naphthalen-1-yl hexyl carbamate] |  | 1.4899 | 1.4990 | 1.4883 |  |  |  | 0.128 µM (≈ 0.0632 µg/mL) | 259 µM (≈ 128 µg/mL) | 3.2 ± 0.19 µM |  | 0.253 µM (≈ 0.125 µg/mL) | 0.253 µM (≈ 0.125 µg/mL) | 0.253 µM (≈ 0.125 µg/mL) | 0.253 µM (≈ 0.125 µg/mL) | 0.253 µM (≈ 0.125 µg/mL) | 0.506 µM (≈ 0.25 µg/mL) | 0.128 µM (≈ 0.0632 µg/mL) |
